Series [1] relates to neuroectodermal tumor cells.
Series [2] has as its system neuroblastoma (IMR-32, IMR-5, AF8, SJ-N-KP). As to the kind of experiment: In vitro cytotoxicity assay, neuroblastoma cell lines. The class given is cell-based. The note with it: Homo sapiens, 72 hours exposure, 0 to 100 μM, read-out: ED50 (half-maximal effective dose), cytotoxicity.
Description: (§2) tumors of neuroectodermic origin: neuroblastoma (IMR-32, IMR-5, AF8, SJ-N-KP), pPNET (TC32), Ewing's sarcoma (TC106), melanoma (Mel 23);
Another series deals with Ewing's sarcoma (TC106). As to the kind of experiment: In vitro cytotoxicity assay, Ewing's sarcoma cells. Conditions: Homo sapiens, 72 hours exposure, 0 to 100 μM, read-out: ED50 (half-maximal effective dose), cytotoxicity. The class given is cell-based.
Series [3] is described as follows: In vitro cytotoxicity assay, normal fibroblasts. The class given is cell-based. The note with it: human, normal lung fibroblasts (MRC5), 72 hours exposure, 0 to 100 μM, read-out: ED50 (half-maximal effective dose), cytotoxicity. An excerpt:
normal cells: human lung fibroblasts (MRC5).

Series [4] concerns acute lymphocytic leukemia lines (CEM, CEM VBL). As to the kind of experiment: In vitro cytotoxicity assay, leukemia lines. The class given is cell-based. Conditions: Homo sapiens, 72 hours exposure, 0 to 100 μM, read-out: ED50 (half-maximal effective dose), cytotoxicity. An excerpt: tumors of different origin: T-cell leukemia (CEM) and T-cell leukemia vinblastine-resistant (CEM VBL), colon adenocarcinoma (LoVo 109) and colon adenocarcinoma doxorubicin-resistant (LoVo DX), cervix epithelioid carcinoma (HeLa);

Series [5] deals with hemopoietic progenitors cells from bone marrow of healthy donors. As to the kind of experiment: Clonogenic test, CFU-GM from bone marrow. The class given is cell-based. Conditions: Homo sapiens, 336 h, methyl cellulose, 1-100 μM, 14 days, read-out: ED50 for the growth of CFU-GM colonies. The procedure:
(§1) Clonogenic tests have also been carried out on hemopoietic progenitors cells, obtained from bone marrow (BM ? ) of healthy donors and from cord blood (CB □), and on neuroblastoma cells (SJ-N-KP ▪). The cell have been grown in methyl cellulose with scalar doses of AE in concentrations between 1 and 100 μM for 14 days.

In series [6] the test system is hemopoietic progenitors cells from cord blood. Put plainly: Clonogenic test, CFU-GM from cord blood. The class given is cell-based. The note with it: Homo sapiens, 336 h, methyl cellulose, 1-100 μM, 14 days, read-out: ED50 for the growth of CFU-GM colonies. The procedure:
as §1

The nature of series [7]: Acute and chronic toxicity in Swiss mice. The class given is in vivo. Conditions: i.p. The procedure:
In the first case assays on acute and chronic toxicity are carried out on Swiss mice (males aged 8-10 weeks) to show possible effects of general toxicity due to AE on weight, neurological and intestinal functions, and hematological parameters. The animals were treated with high doses by intraperitoneal route, between 30 mg/Kg/die and 50 mg/Kg/die, in one administration and with low doses, between 1 mg/Kg/die and 10 mg/Kg/die, for repeated dosages.
The animals were monitored to check possible neurological damages by means of periodically repeated behavioral tests, to check hematic toxicity by means of weekly hemochrome analyses, and to check intestinal toxicity by means of daily faeces analyses. Moreover, the animals have also been weighed twice a week during the whole test. At the end of the tests the animals have been killed and the autopsy has been conducted.

SMILES strings stand for the structures.

Description for Ewing's sarcoma (TC106): as §2

On to `O=C1c2c(O)cccc2C(C2O[C@H](CO)[C@@H](O)[C@H](O)[C@H]2O)c2cc(CO)cc(O)c21` (stereo partly drawn) [glycosylated form of AE, 10-1,5anhydroglucosyl-1,8-dihydroxy-3-hydroxymethyl-9-anthrone], for which the cytotoxic effect entry in series [1] is given as “no cytotoxic effect”.
With `O=C1c2cccc(O)c2C(=O)c2c(O)cc(CO)cc21` [AE, 1,8-dihydroxy-3-hydroxymethyl-9.10-anthracenedione], the EC50 in series [2] turned out to be 1 µM; in the series on Ewing's sarcoma (TC106), 13 µM; in series [4], 100 µM; in series [5] it was 80 µM; in series [6], 120 µM. Besides, the EC50 at 72 h in series [3] was 40 µM. The “general toxicity (weight, neurological, intestinal, hematological)” value in series [7] (30-50 mg/Kg/die single or 1-10 mg/Kg/die repeated) was “No toxicity”. Also, the autopsy findings entry in series [7] (at the end of the tests) is on record as “not shown any damage to the main organs”.

The values are drawn from patent US6812255B2, “Use of aloe-emodin in the treatment of neuroectodermal tumors” (Universita Degli Studi Di Padova, priority 2002, dated 2004).
